# Experimental data as given in PMC4754331, “Programming of metabolic effects in C57BL/6JxFVB mice by in utero and lactational exposure to perfluorooctanoic acid” (Archives of Toxicology, 2015).
# Read-outs that look alike come from different tables or passages of the source.
# Key:
# [1] = system: C57BL/6JxFVB hybrid mice; assay: Histopathology of brown adipose tissue; format: in vivo
# Procedure: Some measurements included only control and one or two dose groups and could therefore not be analyzed as dose–responses. GTT was therefore evaluated by repeated-measures or nested (to account for litter covariance) two-way ANOVAs (Graphpad Prism 5.0, R) to detect differences at the different time points and between the areas under the curve (AUC). Activity measurement, ucp1 expression, WAT adipocyte size and the proxy for cell number were also tested with a nested ANOVA (R). Differences in distribution of BAT histopathology scores between experimental groups were tested for statistical significance in a two-tailed Fisher’s exact test.
# [2] = cited from earlier work
# [3] = system: rodents; set-up: method as in EFSA [2008]; conditions: basis of the TDI; ref EFSA [2008]; cited from earlier work
# [4] = system: mice (CD-1, NMRI, Balb/c, C57BL/6); set-up: key to Time of effect: P: permanent effect on body weight throughout study; D: delayed (late onset) of effect; T: transient effect; E: effect observed during treatment; conditions: cited from earlier work
# [5] = females, 300 and 3000 combined, p = 0.097 vs control
# [6] = males, 300 and 3000 combined, p < 0.05 vs control
# [7] = Balb/c and C57BL/6, 1000-5000-10,000 µg/kg bw/d, oral gavage PND21-49 (5d/w), ref Yang et al. ([2009])
# [8] = Balb/c, C57BL/6, 2500 (Balb), 7500 (BL6) µg/kg bw/d, oral gavage PND21-49 (5d/w), ref Zhao et al. ([2012])
# [9] = CD-1, 5000 µg/kg bw/d, oral gavage GD1-17, GD8-17, GD12-17, ref White et al. ([2007])
# [10] = CD-1, 10-100-1000 µg/kg bw/d, oral gavage GD10-17, ref Macon et al. ([2011])
# [11] = CD-1, 10-100-1000 µg/kg bw/d, oral gavage PND18-20, ref Dixon et al. ([2012])
# [12] = CD-1, 10–5000 µg/kg bw/d, oral gavage GD1-17, ref Hines et al. ([2009])
# [13] = CD-1, 300-1000-3000 µg/kg bw/d, oral gavage GD1-17, ref Macon et al. ([2011])
# [14] = CD-1, 1000, 3000, 5000, 10,000, 20,000, 40,000 µg/kg bw/d, oral gavage GD1-17, ref Lau et al. ([2006])
# [15] = CD-1, 1000, 5000, 0/1000 + 5 ng/mL via drinking water, GD1-17, ref White et al. ([2011b])
# [16] = CD-1, 1000–40,000 µg/kg bw/d, oral gavage GD1-17, ref Lau et al. ([2006])
# [17] = CD-1, 3000, 5000 µg/kg bw/d, oral gavage GD1-17, ref White et al. ([2009])
# [18] = CD-1, dose 3 [sic], 5 µg/kg bw/d, oral gavage GD1-17, ref Wolf et al. ([2007])
# [19] = NMRI, 580-8,700 µg/kg bw/d, oral gavage PND10, ref Johansson et al. ([2008])
compound,measurement,setting,value
"O=C(O)C(F)(F)C(F)(F)C(F)(F)C(F)(F)C(F)(F)C(F)(F)C(F)(F)F [PFOA, Perfluorooctanoic acid]",Brown adipose tissue (interscapular fat pad) histopathology,"[1]; females vs control females, p = 0.097",trend for lipid depletion
same,Brown adipose tissue lipid accumulation: count of individuals with Grade 3,[1]; [5],4
same,"Brown adipose tissue lipid accumulation: count of individuals with Grades 1, 2",[1]; [5],14
same,Brown adipose tissue (interscapular fat pad) histopathology,[1]; males vs control males,significant lipid accumulation
same,"Brown adipose tissue lipid accumulation: count of individuals with Grades 1, 2, 3",[1]; [6],4
same,"Brown adipose tissue lipid accumulation: count of individuals with Grades 4, 5, 6",[1]; [6],13
same,Level in adult human serum samples,"[2]; detected globally, ref Calafat et al. [2007]",3.6 to 4.3 ng/mL
same,Level in serum of pregnant mothers,[2]; ref Grandjean et al. [2012],2.6 to 4.0 ng/mL
same,Level in cord plasma,[2]; ref de Cock et al. [2014],0.3 to 2.7 ng/mL
same,BMDL10 for liver effects in rodents,[3],300 µg/kg bw/d
same,Endpoint bw (age) F,[4]; [7],↓ PND45-46
same,Other relevant effects of PFOA,[4]; [7],PND49: delayed vaginal opening; ↑ abs/rel liver weight; inhibition mammary gland/uterine development
same,Time of effect,[4]; [7],E
same,Endpoint bw (age) F,[4]; [8],↓ PND42-49 (BL6)
same,Other relevant effects of PFOA,[4]; [8],delayed/absent vaginal opening; lack of estrous cycling; ↓ovarian steroid hormonal synthetic enzyme levels
same,Time of effect,[4]; [8],E
same,Other relevant effects of PFOA,"[4]; C57BL/6/Bkl, 300 µg/kg bw/d, diet GD1-PND0, ref Onishchenko et al. ([2011])",M + F: changes in exploratory behavior; M: ↑ activity
same,Other relevant effects of PFOA,"[4]; C57BL/6, 5000 µg/kg bw/d, oral gavage PND21-49 (5d/w), ref Zhao et al. ([2010])",↑ serum progesterone; ↑ mammary gland response to estrogen and/or progesterone
same,Time of effect,"[4]; CD-1, 5000 µg/kg bw/d, oral gavage GD1-17, GD8-17, GD12-17, no follow-up of animals, ref White et al. ([2007])",P^c
same,Endpoint bw (age) F,[4]; [9],↓ PND1-20
same,Endpoint bw (age) M,[4]; [9],↓ PND1-20
same,Other relevant effects of PFOA,[4]; [9],altered mammary gland development in dams + female pups
same,Endpoint bw (age) F,[4]; [10],– PND1-21
same,Endpoint bw (age) M,[4]; [10],– PND1-21
same,Other relevant effects of PFOA,[4]; [10],M + F: hepatomegaly; F: mammary gland developmental abnormalities
same,Endpoint bw (age) F,[4]; [11],– PND21
same,Other relevant effects of PFOA,[4]; [11],PND21: ↑ abs/rel uterine weight (lowest dose)
same,Endpoint bw (age) F,"[4]; CD-1, 10, 100, 300, 1000, 3000, 5000 µg/kg bw/d, oral gavage GD1-17, ref Hines et al. ([2009])","↓ PND1,21 (high doses); ↑ 20-40w (low doses)"
same,Other relevant effects of PFOA,[4]; [12],"21–33w: ↑ insulin; ↑ leptin (low doses); 18 m, weights abs/rel: ↓ abdominal white fat (high doses); ↑ interscapular fat (high doses); – liver"
same,Time of effect,[4]; [12],D T
same,Endpoint bw (age) F,[4]; [13],– PND7-85
same,Endpoint bw (age) M,[4]; [13],– PND7-85
same,Other relevant effects of PFOA,[4]; [13],M + F: delayed mammary gland development
same,Endpoint bw (age) F,[4]; [14],↓ PND1-25; – 6.5w-60w
same,Endpoint bw (age) M,[4]; [14],↓ PND1-25; – 6.5w-60w
same,Other relevant effects of PFOA,[4]; [15],"delay in mammary gland development and/or lactational differentiation (P0, F1, F2)"
same,Time of effect,[4]; [15],T
same,Endpoint bw (age) F,"[4]; CD-1, 1000, 5000, 0/1000 + 5 ng/mL via drinking water, oral gavage GD1-17, GD1-end of study (5 ng/mL groups), ref White et al. ([2011b])",↓ PND42 (F1); ↑ PND14-22 (F2)
same,Other relevant effects of PFOA,[4]; [16],M: earlier preputial separation
same,Time of effect,[4]; [16],T
same,Endpoint bw (age) F,[4]; [17],↓ PND21-85
same,Other relevant effects of PFOA,[4]; [17],weaning age: abnormal (delay) mammary gland development; ↑ rel liver weight
same,Time of effect,[4]; [17],T
same,Endpoint bw (age) M,"[4]; CD-1, 3000, 5000 µg/kg bw/d, oral gavage GD1-17, ref Wolf et al. ([2007])",↓ PND1-22; ↑ PND85 - 35w (dose 3000)
same,Endpoint bw (age) F,[4]; [18],↓ PND1-22
same,Other relevant effects of PFOA,[4]; [18],"M + F, PND22: ↑ abs/rel liver weight"
same,Time of effect,[4]; [18],T; D (dose 3000)
same,Endpoint bw (age) M,[4]; [19],– PND10 + 28
same,Other relevant effects of PFOA,[4]; [19],8/16w: neurotoxicity
same,Most sensitive developmental BMDL,[4]; ref Lau et al. [2006],616 µg/kg bw/d
